These results are taken from ChEMBL document CHEMBL1201862, “PubChem BioAssay data set” (2004).

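Method: 48-hour compound exposure of cells in 96-well plates, five concentrations, linear interpolation of endpoints. Here, GI50 denotes the concentration required for 50% inhibition of growth.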 Calls of active or inactive are those of the source. No stated cut-off is given here; in the data, active = GI50 up to about 1.1 µM and inactive = higher.

Among the test systems are 786-0; DLD-1; DMS-273; HT-29; LXFL 529; M14; M19-MEL; SF-268; SF-295; SK-MEL-5; SK-OV-3; SN12C; SNB-78; SR; XF498; MCF7; MDA-N; PC-3; BT-549; MDA-MB-231.
Common to all, as to assay: NCI tumour cell line growth inhibition, 48 h

For the molecule `COc1cccc2[s+]snc12`, the GI50 with 786-0 is 33.6 µM (inactive); with DLD-1 it was 35.6 µM (inactive); with DMS-273 it was 53.2 µM (inactive); in the assay with HT-29, 96.8 µM (inactive); with LXFL 529, 43.3 µM (inactive); with M14 it was > 100 µM (inactive). Moreover, the GI50 with M19-MEL was 22.8 µM (inactive); with SF-268, 34.1 µM (inactive); in the assay with SF-295, 46.3 µM (inactive); in the assay on SK-MEL-5 it was 24.3 µM (inactive); in the assay with SK-OV-3, > 100 µM (inactive); with SN12C, 35.5 µM (inactive). Besides, the GI50 was 38.7 µM (inactive) with SNB-78, 22.2 µM (inactive) in the assay on SR and 18.8 µM (inactive) in the assay on XF498.

Consider `CC(C)N1CSC(=S)N(Cc2ccccc2)C1`, for which the GI50 in the assay on HT-29 is 2.43 µM (inactive); in the assay with MCF7 it was 4.16 µM (inactive); with MDA-N, 2.42 µM (inactive); in the assay on PC-3, 3.75 µM (inactive); with SF-268, 4.38 µM (inactive); in the assay on SF-295, > 10 µM (inactive). The GI50 was 4.66 µM (inactive) in the assay on SK-MEL-5, > 10 µM (inactive) in the assay with SK-OV-3, 4.49 µM (inactive) in the assay with SN12C and 1.64 µM (inactive) in the assay with SR.

With `CC1(c2sccc2Cl)CC(c2sccc2Cl)=C(C#N)C(=C(C#N)C#N)N1` (stereo unspecified), the GI50 in the assay on 786-0 is 18.4 µM (inactive); with BT-549, 17.8 µM (inactive); in the assay on HT-29 it was 24 µM (inactive); in the assay with M14 it was 18.6 µM (inactive); in the assay with MCF7, 22.8 µM (inactive); in the assay with MDA-MB-231, 21.9 µM (inactive). The GI50 is 17.3 µM (inactive) in the assay on MDA-N; 18.7 µM (inactive) in the assay on PC-3; 20.2 µM (inactive) in the assay with SF-268; 17.9 µM (inactive) with SF-295; 18.5 µM (inactive) in the assay with SK-MEL-5; 17.5 µM (inactive) in the assay with SK-OV-3. Further, the GI50 in the assay with SN12C was 20.2 µM (inactive).

For `Nc1nc2cc(COc3ccc(C(=O)O)cc3)ccc2nc1-c1ccccc1`, the GI50 in the assay with HT-29, with M14, in the assay with MCF7, in the assay on MDA-MB-231, in the assay with MDA-N and in the assay on PC-3 was > 10 µM (inactive) each time. The GI50 in the assay with SF-268, in the assay on SF-295, in the assay on SK-MEL-5, in the assay with SK-OV-3, in the assay with SN12C and in the assay on SR was > 10 µM (inactive) each time.

In the case of `S=CN1CCCCC1`, the GI50 in the assay on 786-0, in the assay on BT-549, with HT-29, with M14, with MCF7 and in the assay with MDA-MB-231 was > 100 µM (inactive) throughout. Also, the GI50 with MDA-N, with PC-3, in the assay on SF-268, in the assay with SF-295, in the assay with SK-MEL-5 and in the assay with SK-OV-3 was > 100 µM (inactive) throughout. In addition, the GI50 in the assay with SN12C and in the assay on SR was > 100 µM (inactive) throughout.

As to `Cc1[nH]n(C2=NCCN2)c(=O)c1Cc1ccccc1`, the GI50 with 786-0, in the assay with BT-549, in the assay with HT-29, with M14, with MCF7 and in the assay with MDA-MB-231 was > 100 µM (inactive) in each case. Also, the GI50 in the assay on MDA-N, in the assay on PC-3, in the assay with SF-268, with SF-295, in the assay on SK-MEL-5 and with SK-OV-3 was > 100 µM (inactive) throughout. For the same molecule, the GI50 with SR was > 100 µM (inactive).

As for `O=C(NN1C(=O)C(Cl)C1c1ccc([N+](=O)[O-])cc1)c1ccccc1O` (stereo unspecified), the GI50 with HT-29, with LXFL 529, in the assay on M14, with M19-MEL, in the assay with SF-268 and with SF-295 was > 100 µM (inactive) each time. Moreover, the GI50 is > 100 µM (inactive) with SK-MEL-5; > 100 µM (inactive) with SK-OV-3; > 100 µM (inactive) in the assay with SN12C; > 100 µM (inactive) in the assay on SR; 93.1 µM (inactive) with XF498.

Turning to `CC1=C(C(=O)Nc2cccc(Cl)c2)C(c2ccccc2O)C(C(=O)Nc2cccc(Cl)c2)=C(C)N1`, the GI50 in the assay with 786-0 was 15.7 µM (inactive); with DLD-1, 18.4 µM (inactive); with HT-29 it was 18.8 µM (inactive); in the assay with LXFL 529, 21.8 µM (inactive); in the assay with M14, 17.4 µM (inactive); in the assay on M19-MEL, 19.4 µM (inactive). For the same molecule, the GI50 with SF-268 is 17.7 µM (inactive); with SF-295, 22.1 µM (inactive); in the assay on SK-MEL-5, 17.4 µM (inactive); in the assay with SK-OV-3, 24.3 µM (inactive); with SN12C it was 21.8 µM (inactive); in the assay with SNB-78, 24.5 µM (inactive).

For `CC(=O)NNc1nc(C)c(C(=O)NNC(=O)C(=O)Nc2ccc([N+](=O)[O-])cc2[N+](=O)[O-])s1`, the GI50 in the assay on DLD-1 was > 100 µM (inactive); in the assay on DMS-273, > 100 µM (inactive); in the assay with HT-29 it was 55.3 µM (inactive); with LXFL 529, 93.1 µM (inactive); in the assay with M14 it was > 100 µM (inactive); in the assay on SF-268 it was > 100 µM (inactive). Also, the GI50 in the assay with SF-295 was > 100 µM (inactive); with SK-MEL-5, > 100 µM (inactive); in the assay with SK-OV-3, > 100 µM (inactive); in the assay with SN12C, > 100 µM (inactive); with SNB-78 it was > 100 µM (inactive); in the assay on SR, 81.1 µM (inactive). In the assay on XF498, the GI50 was > 100 µM (inactive).

Regarding `CCOC(=O)C1=C(C)N(NC(N)=O)C2(O)CCCC(=O)C12C` (stereo unspecified), the GI50 is 94.4 µM (inactive) in the assay on DLD-1; > 100 µM (inactive) with DMS-273; > 100 µM (inactive) with HT-29; > 100 µM (inactive) in the assay with LXFL 529; > 100 µM (inactive) with M14; > 100 µM (inactive) in the assay with SF-295. The GI50 in the assay on SK-MEL-5 was > 100 µM (inactive); in the assay on SK-OV-3, > 100 µM (inactive); with SN12C it was > 100 µM (inactive); with SNB-78, > 100 µM (inactive); in the assay with SR it was > 10 µM (inactive); in the assay on XF498, > 100 µM (inactive).

For the molecule `CC1(C)C(N2CCOCC2)CS1(=O)=O` (stereo unspecified), the GI50 in the assay on 786-0, with BT-549, with HT-29, in the assay on M14, with MCF7 and in the assay with MDA-MB-231 was > 10 µM (inactive) in each case. In addition, the GI50 with MDA-N, in the assay with PC-3, in the assay on SF-268, in the assay with SF-295, in the assay on SK-MEL-5 and in the assay with SK-OV-3 was > 10 µM (inactive) each time. In the assay with SN12C, the GI50 is > 10 µM (inactive).

As to `CSc1nc(SC)c2cnn(CC3CO3)c2n1` (stereo unspecified), the GI50 in the assay on DLD-1 is 22.3 µM (inactive); in the assay with DMS-273, 22.8 µM (inactive); in the assay on HT-29, 22 µM (inactive); with M19-MEL, 13.6 µM (inactive); in the assay on MCF7, 9.44 µM (inactive); in the assay on SF-268, 9.73 µM (inactive). The GI50 is 24.6 µM (inactive) with SF-295; 13.3 µM (inactive) in the assay on SK-MEL-5; 30.8 µM (inactive) in the assay with SK-OV-3; 20.2 µM (inactive) in the assay with SN12C; 22.4 µM (inactive) with XF498.

As for `COc1cc2cc3c4cc(OC)c(OC)cc4cc[n+]3cc2cc1OC`, the GI50 in the assay on DLD-1 was > 100 µM (inactive); with DMS-273, > 100 µM (inactive); in the assay with HT-29, > 100 µM (inactive); in the assay with M19-MEL, > 100 µM (inactive); with MCF7 it was > 31.6 µM (inactive); in the assay with SF-268, 0.435 µM (active). Further, the GI50 was > 100 µM (inactive) with SF-295; > 100 µM (inactive) in the assay with SK-MEL-5; > 82.2 µM (inactive) in the assay on SK-OV-3; 12.4 µM (inactive) in the assay on SN12C; > 74.3 µM (inactive) with SNB-78; > 100 µM (inactive) with XF498.

Take `COc1cccc2c1C(=O)c1c(O)c3c(c(O)c1C2=O)CC(O)(C(=O)CO)CC3OC1CC(N)C(I)C(C)O1` (stereo unspecified): the GI50 in the assay on DLD-1 was 2.54 µM (inactive); in the assay on DMS-273, 0.424 µM (active); in the assay on HT-29 it was 3.15 µM (inactive); with M19-MEL, 2.7 µM (inactive); with MCF7, 1.17 µM (inactive); with SF-268, 15.9 µM (inactive). The GI50 was 2.1 µM (inactive) with SF-295; 2.64 µM (inactive) in the assay on SK-MEL-5; 3.98 µM (inactive) in the assay on SK-OV-3; 2.38 µM (inactive) in the assay on SN12C; 25.7 µM (inactive) in the assay with SNB-78; 6.64 µM (inactive) with XF498.

Turning to `CCOC(=O)C1=C(C)N(c2ccc(OC)cc2)C2(O)C=CC(O)=C3C(=O)c4ccccc4C(=O)C312` (stereo unspecified), the GI50 in the assay with BT-549 is 14 µM (inactive); in the assay on HT-29 it was 17.9 µM (inactive); with M14, 9.75 µM (inactive); in the assay on MCF7, 6.03 µM (inactive); with MDA-MB-231, 14.3 µM (inactive); with MDA-N, 8.61 µM (inactive). Further, the GI50 in the assay with PC-3 is 5.53 µM (inactive); with SF-268 it was 2.13 µM (inactive); in the assay with SF-295, 8.77 µM (inactive); in the assay on SK-MEL-5, 11.4 µM (inactive); in the assay with SK-OV-3 it was 13.4 µM (inactive); with SN12C it was 14.8 µM (inactive).

Take `Cc1cc(N(CCOS(C)(=O)=O)CCOS(C)(=O)=O)ccc1C=O`: the GI50 in the assay with BT-549 was 15.2 µM (inactive); in the assay with HT-29, 4.49 µM (inactive); in the assay with M14, 3.05 µM (inactive); in the assay with MCF7, 1.22 µM (inactive); in the assay on MDA-MB-231, 28.5 µM (inactive); in the assay with MDA-N it was 11.4 µM (inactive). In addition, the GI50 with PC-3 is 20 µM (inactive); in the assay with SF-268, 6.56 µM (inactive); in the assay on SF-295, 4.35 µM (inactive); in the assay with SK-MEL-5 it was 7.78 µM (inactive); in the assay on SN12C it was 1.47 µM (inactive).
